Results taken from patent US5977133A, “Pyridone antibiotic with improved safety profile” (priority 1998, dated 1999).
Values after ≈ are worked out from the molar mass of the structure shown.

Experiments:
Format in all cases: cell-based
Legionella spp. = experiment: microbe, parasite or virus in culture; details: Legionella
S. epidermidis (CiproR) = experiment: In vitro MIC, agar dilution; details: Staphylococcus epidermidis, S. epidermidis (CiproR), 11 isolates
Enterococcus spp. (VanR) = experiment: In vitro MIC, agar dilution; details: Enterococcus spp. (VanR), 21 isolates
S. pneumoniae (PenR) = experiment: In vitro MIC, agar dilution; details: Streptococcus pneumoniae
H. pylori = experiment: In vitro MIC, agar dilution; details: Helicobacter pylori
E. coli = experiment: In vitro MIC, agar dilution; details: Escherichia coli, 25 isolates
Method in brief: (§1)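 MIC, the lowest compound level without growth versus a drug-free BHI control plate, with faint haze or scattered colonies scored as no growth. About 10^4 CFU was replicator-spotted from 1:100 dilutions, or 1:10 for slow-growing strains, and plates were read after ~20–24 h at 35–37 °C.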

Salmonella spp. = experiment: In vitro MIC, agar dilution; details: 23 isolates
Method in brief: as §1

C. difficile = experiment: In vitro MIC, agar dilution; details: Clostridioides difficile
Enterobacter spp. = experiment: In vitro MIC, agar dilution
S. aureus (CiproS) = experiment: In vitro MIC, agar dilution; details: Staphylococcus aureus
M. avium = experiment: In vitro MIC, agar dilution; details: Mycobacterium avium
M. pneumoniae = experiment: In vitro MIC, agar dilution; details: Mycoplasmoides pneumoniae, read-out: MIC Range
Providencia spp. = experiment: In vitro MIC, agar dilution; details: Providencia spp., 28 isolates
P. aeruginosa (CiproS) = experiment: In vitro MIC, agar dilution; details: Pseudomonas aeruginosa, P. aeruginosa (CiproS), 24 isolates
S. epidermidis (CiproS) = experiment: In vitro MIC, agar dilution; details: Staphylococcus epidermidis
P. mirabilis = experiment: In vitro MIC, agar dilution; details: Proteus mirabilis
C. freundii = experiment: In vitro MIC, agar dilution; details: Citrobacter freundii
E. faecium (CiproS) = experiment: In vitro MIC, agar dilution; details: Enterococcus faecium, E. faecium (CiproS), 16 isolates
E. faecium (CiproR) = experiment: In vitro MIC, agar dilution; details: Enterococcus faecium; E. faecium (CiproR), 2 isolates; read-out: MIC Range
Klebsiella spp. = experiment: In vitro MIC, agar dilution
H. influenzae = experiment: In vitro MIC, agar dilution; details: Haemophilus influenzae
S. aureus (CiproR) = experiment: In vitro MIC, agar dilution; details: Staphylococcus aureus
P. aeruginosa (CiproR) = experiment: In vitro MIC, agar dilution; details: Pseudomonas aeruginosa
B. fragilis = experiment: In vitro MIC, agar dilution; details: Bacteroides fragilis
S. pneumoniae (CiproR) = experiment: In vitro MIC, agar dilution; details: Streptococcus pneumoniae, read-out: MIC Range
Shigella spp. = experiment: microbe, parasite or virus in culture; details: read-out: MIC Range
C. perfringens = experiment: microbe, parasite or virus in culture; details: Clostridium perfringens
E. faecium (VanS) = experiment: In vitro MIC, agar dilution; details: Enterococcus faecium, E. faecium (VanS), 11 isolates
E. faecalis (VanS) = experiment: In vitro MIC, agar dilution; details: Enterococcus faecalis
M. catarrhalis = experiment: In vitro MIC, agar dilution; details: Moraxella catarrhalis

## C[C@@H]1CN(c2c(F)c(N)c3c(=O)c(C(=O)O)cn(C4CC4)c3c2F)C[C@H](C)N1 [Sparfloxacin, sparfloxacin]
Legionella spp.
  MIC50: 0.06 µg/mL (≈ 0.153 µM)
  MIC90: 0.25 µg/mL (≈ 0.637 µM)
Legionella spp.; read-out: MIC Range
  MIC: 0.03 to 0.25 µg/mL (≈ 0.0765 to 0.637 µM)
S. epidermidis (CiproR); read-out: MIC50
  MIC50: 4 µg/mL (≈ 10.2 µM)
S. epidermidis (CiproR); read-out: MIC90
  MIC90: 8 µg/mL (≈ 20.4 µM)
Enterococcus spp. (VanR); read-out: MIC50
  MIC50: 0.5 µg/mL (≈ 1.27 µM)
Enterococcus spp. (VanR); read-out: MIC90
  MIC90: 8 µg/mL (≈ 20.4 µM)
Enterococcus spp. (VanR); read-out: MIC Range
  MIC: 0.25 to 32 µg/mL (≈ 0.637 to 81.5 µM)
S. pneumoniae (PenR)
  MIC90: 0.25 µg/mL (≈ 0.637 µM)
S. pneumoniae (PenR); read-out: MIC Range
  MIC: 0.12 to 0.25 µg/mL (≈ 0.306 to 0.637 µM)
S. pneumoniae (PenR); S. pneumoniae (PenR), 25 isolates, read-out: MIC50
  MIC50: 0.25 µg/mL (≈ 0.637 µM)
H. pylori
  MIC90: 0.25 µg/mL (≈ 0.637 µM)
H. pylori; read-out: MIC Range
  MIC: 0.06 to 0.25 µg/mL (≈ 0.153 to 0.637 µM)
H. pylori; H. pylori, 17 isolates, read-out: MIC50
  MIC50: 0.12 µg/mL (≈ 0.306 µM)
E. coli
  MIC: 0.004 to 0.03 µg/mL (≈ 0.0102 to 0.0765 µM)
E. coli; read-out: MIC50
  MIC50: 0.015 µg/mL (≈ 0.0382 µM)
E. coli; read-out: MIC90
  MIC90: 0.03 µg/mL (≈ 0.0765 µM)
Salmonella spp.
  MIC: 0.004 to 0.5 µg/mL (≈ 0.0102 to 1.27 µM)
Salmonella spp.; read-out: MIC50
  MIC50: 0.03 µg/mL (≈ 0.0765 µM)
Salmonella spp.; read-out: MIC90
  MIC90: 0.06 µg/mL (≈ 0.153 µM)
C. difficile; read-out: MIC Range
  MIC: 2 to 4 µg/mL (≈ 5.1 to 10.2 µM)
C. difficile; C. difficile, 10 isolates, read-out: MIC50
  MIC50: 4 µg/mL (≈ 10.2 µM)
C. difficile; C. difficile, 10 isolates, read-out: MIC90
  MIC90: 4 µg/mL (≈ 10.2 µM)
Enterobacter spp.; Enterobacter
  MIC90: 0.06 µg/mL (≈ 0.153 µM)
Enterobacter spp.; Enterobacter spp., 35 isolates, read-out: MIC50
  MIC50: 0.06 µg/mL (≈ 0.153 µM)
Enterobacter spp.; Enterobacter spp., 35 isolates, read-out: MIC Range
  MIC: 0.008 to 0.25 µg/mL (≈ 0.0204 to 0.637 µM)
S. aureus (CiproS)
  MIC50: 0.03 µg/mL (≈ 0.0765 µM)
  MIC90: 0.06 µg/mL (≈ 0.153 µM)
S. aureus (CiproS); S. aureus (CiproS), 21 isolates, read-out: MIC Range
  MIC: 0.03 to 0.06 µg/mL (≈ 0.0765 to 0.153 µM)
M. avium; read-out: MIC Range
  MIC: 0.5 to 16 µg/mL (≈ 1.27 to 40.8 µM)
M. avium; M. avium, 20 isolates, read-out: MIC50
  MIC50: 2 µg/mL (≈ 5.1 µM)
M. avium; M. avium, 20 isolates, read-out: MIC90
  MIC90: 2 µg/mL (≈ 5.1 µM)
M. pneumoniae
  MIC: 0.06 to 0.12 µg/mL (≈ 0.153 to 0.306 µM)
Providencia spp.; read-out: MIC50
  MIC50: 0.12 µg/mL (≈ 0.306 µM)
Providencia spp.; read-out: MIC90
  MIC90: 1 µg/mL (≈ 2.55 µM)
Providencia spp.; read-out: MIC Range
  MIC: 0.015 to 2 µg/mL (≈ 0.0382 to 5.1 µM)
P. aeruginosa (CiproS); read-out: MIC50
  MIC50: 0.5 µg/mL (≈ 1.27 µM)
P. aeruginosa (CiproS); read-out: MIC90
  MIC90: 1 µg/mL (≈ 2.55 µM)
P. aeruginosa (CiproS); read-out: MIC Range
  MIC: 0.06 to 8 µg/mL (≈ 0.153 to 20.4 µM)
S. epidermidis (CiproS)
  MIC90: 0.12 µg/mL (≈ 0.306 µM)
S. epidermidis (CiproS); S. epidermidis (CiproS), 23 isolates, read-out: MIC50
  MIC50: 0.06 µg/mL (≈ 0.153 µM)
S. epidermidis (CiproS); S. epidermidis (CiproS), 23 isolates, read-out: MIC Range
  MIC: 0.03 to 0.12 µg/mL (≈ 0.0765 to 0.306 µM)
P. mirabilis
  MIC90: 0.25 µg/mL (≈ 0.637 µM)
P. mirabilis; read-out: MIC Range
  MIC: 0.12 to 0.5 µg/mL (≈ 0.306 to 1.27 µM)
P. mirabilis; P. mirabilis, 20 isolates, read-out: MIC50
  MIC50: 0.25 µg/mL (≈ 0.637 µM)
C. freundii
  MIC50: 0.03 µg/mL (≈ 0.0765 µM)
  MIC90: 0.5 µg/mL (≈ 1.27 µM)
C. freundii; C. freundii, 20 isolates, read-out: MIC Range
  MIC: 0.015 to 1 µg/mL (≈ 0.0382 to 2.55 µM)
E. faecium (CiproS); read-out: MIC50
  MIC50: 0.5 µg/mL (≈ 1.27 µM)
E. faecium (CiproS); read-out: MIC90
  MIC90: 1 µg/mL (≈ 2.55 µM)
E. faecium (CiproS); read-out: MIC Range
  MIC: 0.5 to 32 µg/mL (≈ 1.27 to 81.5 µM)
E. faecium (CiproR)
  MIC: 8 to 32 µg/mL (≈ 20.4 to 81.5 µM)
Klebsiella spp.; Klebsiella
  MIC90: 0.06 µg/mL (≈ 0.153 µM)
Klebsiella spp.; Klebsiella spp., 29 isolates, read-out: MIC50
  MIC50: 0.06 µg/mL (≈ 0.153 µM)
Klebsiella spp.; Klebsiella spp., 29 isolates, read-out: MIC Range
  MIC: 0.004 to 0.5 µg/mL (≈ 0.0102 to 1.27 µM)
H. influenzae
  MIC90: 0.015 µg/mL (≈ 0.0382 µM)
H. influenzae; H. influenzae, 18 isolates, read-out: MIC50
  MIC50: 0.008 µg/mL (≈ 0.0204 µM)
H. influenzae; H. influenzae, 18 isolates, read-out: MIC Range
  MIC: 0.004 to 0.03 µg/mL (≈ 0.0102 to 0.0765 µM)
S. aureus (CiproR); read-out: MIC Range
  MIC: 0.12 to 16 µg/mL (≈ 0.306 to 40.8 µM)
S. aureus (CiproR); S. aureus (CiproR), 25 isolates, read-out: MIC50
  MIC50: 4 µg/mL (≈ 10.2 µM)
S. aureus (CiproR); S. aureus (CiproR), 25 isolates, read-out: MIC90
  MIC90: 8 µg/mL (≈ 20.4 µM)
P. aeruginosa (CiproR)
  MIC90: 128 µg/mL (≈ 326 µM)
P. aeruginosa (CiproR); P. aeruginosa (CiproR), 20 isolates, read-out: MIC50
  MIC50: 64 µg/mL (≈ 163 µM)
B. fragilis; read-out: MIC Range
  MIC: 0.5 to 2 µg/mL (≈ 1.27 to 5.1 µM)
B. fragilis; B. fragilis, 18 isolates, read-out: MIC50
  MIC50: 1 µg/mL (≈ 2.55 µM)
B. fragilis; B. fragilis, 18 isolates, read-out: MIC90
  MIC90: 2 µg/mL (≈ 5.1 µM)
S. pneumoniae (CiproR)
  MIC: 0.25 to 0.5 µg/mL (≈ 0.637 to 1.27 µM)
Shigella spp.
  MIC: 0.004 to 0.015 µg/mL (≈ 0.0102 to 0.0382 µM)
C. perfringens
  MIC50: 0.25 µg/mL (≈ 0.637 µM)
C. perfringens; C. perfringens, 13 isolates
  MIC90: 0.5 µg/mL (≈ 1.27 µM)
C. perfringens; read-out: MIC Range
  MIC: 0.06 to 0.5 µg/mL (≈ 0.153 to 1.27 µM)
E. faecium (VanS); read-out: MIC50
  MIC50: 1 µg/mL (≈ 2.55 µM)
E. faecium (VanS); read-out: MIC90
  MIC90: 2 µg/mL (≈ 5.1 µM)
E. faecium (VanS); read-out: MIC Range
  MIC: 1 to 4 µg/mL (≈ 2.55 to 10.2 µM)
E. faecalis (VanS)
  MIC90: 0.5 µg/mL (≈ 1.27 µM)
E. faecalis (VanS); read-out: MIC Range
  MIC: 0.25 to 1 µg/mL (≈ 0.637 to 2.55 µM)
E. faecalis (VanS); E. faecalis (VanS), 17 isolates, read-out: MIC50
  MIC50: 0.5 µg/mL (≈ 1.27 µM)
M. catarrhalis
  MIC50: 0.03 µg/mL (≈ 0.0765 µM)
  MIC90: 0.06 µg/mL (≈ 0.153 µM)
M. catarrhalis; M. catarrhalis, 18 isolates, read-out: MIC Range
  MIC: 0.015 to 0.25 µg/mL (≈ 0.0382 to 0.637 µM)
